From ChEMBL document CHEMBL3352561, “Synthesis of natural and non-natural curcuminoids and their neuroprotective activity against glutamate-induced oxidative stress in HT-22 cells” (J Nat Prod, 2014)
Activity calls are given as the source filed them. The calls are words filed in the database; no cut-off is given here.

Experiments:
HT-22 [1] = test: Neuroprotective activity against glutamate-induced neuronal cell death in mouse HT22 cells assessed as increase in cell viability at 25 uM after 24 hrs by MTT assay relative to control; assay type: functional, cell-based
HT-22 [2] = test: Neuroprotective activity against glutamate-induced neuronal cell death in mouse HT22 cells assessed as increase in cell viability after 24 hrs by MTT assay relative to control; assay type: functional, cell-based
[3] = Cytotoxicity against mouse HT22 cells assessed as cell viability at 10 uM after 24 hrs by MTT assay relative to control; assay type: cell-based, HT-22; conditions: read-out: Activity
HT-22 [4] = test: Neuroprotective activity against t-BuOOH-induced neuronal cell death in mouse HT22 cells assessed as increase in cell viability at 1 to 100 uM after 20 hrs by MTT assay relative to control; assay type: functional, cell-based
HT-22 [5] = test: Neuroprotective activity against glutamate-induced neuronal cell death in mouse HT22 cells assessed as increase in cell viability at 5 uM after 24 hrs by MTT assay relative to control; assay type: functional
HT-22 [6] = test: Neuroprotective activity against glutamate-induced neuronal cell death in mouse HT22 cells assessed as increase in cell viability at 10 uM after 24 hrs by MTT assay relative to control; assay type: functional
HT-22 [7] = test: Neuroprotective activity against glutamate-induced neuronal cell death in mouse HT22 cells assessed as increase in cell viability at 1 to 25 uM after 24 hrs by MTT assay relative to control; assay type: functional, cell-based
HT-22 [8] = test: (§1) Cytotoxicity against mouse HT22 cells assessed as cell viability at 1 to 25 uM after 24 hrs by MTT assay relative to control; assay type: cell-based; conditions: ht-22, 24 h, 25 µM
[9] = Cytotoxicity against mouse HT22 cells assessed as reduction in cell viability at 10 uM after 24 hrs by MTT assay relative to control; assay type: cell-based, HT-22; conditions: read-out: INH
[10] = Cytotoxicity against mouse HT22 cells assessed as reduction in cell viability at 25 uM after 24 hrs by MTT assay relative to control; assay type: cell-based, HT-22; conditions: read-out: INH
[11] = as §1; assay type: cell-based, HT-22; conditions: HT22 cells, read-out: Activity
[12] = Cytotoxicity against mouse HT22 cells assessed as cell viability at 25 uM after 24 hrs by MTT assay relative to control; assay type: cell-based, HT-22; conditions: read-out: Activity
HT-22 [13] = test: Neuroprotective activity against glutamate-induced neuronal cell death in mouse HT22 cells assessed as increase in cell viability at 10 to 25 uM after 24 hrs by MTT assay relative to control; assay type: functional, cell-based
[14] = Cytotoxicity against mouse HT22 cells assessed as cell viability at 1 uM after 24 hrs by MTT assay relative to control; assay type: cell-based, HT-22; conditions: read-out: Activity

With COc1cc(CCCCC(O)CCc2ccc(O)c(OC)c2)ccc1O (centres undefined) the Activity (HT-22 [1]) was “Active”, the Activity (HT-22 [2]) was “Dose-dependent effect” and the viability at 24 h, 10 µM [3] was 73%.

For COc1cc(CCC(O)CCCCc2ccc(O)cc2)ccc1O (centres undefined), the Activity (HT-22 [1]) was “Active”, the Activity (HT-22 [2]) was “Dose-dependent effect” and the viability at 24 h, 10 µM [3] was 75%.

For COc1cc(/C=C/C(=O)CCCCc2ccc(O)cc2)ccc1O, the Activity (HT-22 [2]) was “Dose-dependent effect” and the viability at 24 h, 10 µM [3] was 68%.

In the case of COc1cc(/C=C/C(=O)CCCCc2ccc(O)c(OC)c2)ccc1O, the Activity (HT-22 [4]) was “inactive”, the Activity (HT-22 [5]) was 47% and the Activity (HT-22 [2]) was “Dose-dependent effect”. The viability at 24 h, 10 µM [3] was 66% and the Activity (HT-22 [6]) was 62%.

For COc1cc(CCCCC(=O)/C=C/c2ccc(O)cc2)ccc1O, the Activity (HT-22 [7]) was “inactive” and the viability at 24 h, 10 µM [3] was 67%.

With O=C(/C=C/c1ccc(O)c(O)c1)CC(=O)/C=C/c1ccc(O)c(O)c1 [DIDEMETHYLCURCUMIN] the Activity (HT-22 [8]) was “Toxic”.

With COc1cc(CCCCC(=O)CCc2ccc(O)c(OC)c2)ccc1O the Activity (HT-22 [1]) was “Active”, the Activity (HT-22 [2]) was “Dose-dependent effect” and the viability at 24 h, 10 µM [3] was 70%.

For COc1cc(/C=C/C(=O)CC(=O)/C=C/c2ccc(O)c(OC)c2)ccc1O [CURCUMIN], the cytotoxicity at 24 h, 10 µM [9] was 18% and the cytotoxicity at 24 h, 25 µM [10] was 36%.

With COc1cc(CCC(=O)CCCCc2ccc(O)cc2)ccc1O the Activity (HT-22 [1]) was “Active”, the Activity (HT-22 [2]) was “Dose-dependent effect” and the viability at 24 h, up to 25 µM [11] was 37%.

For Oc1ccc(CCCCC(O)CCc2ccc(O)cc2)cc1 (racemic), the viability at 24 h, 25 µM [12] was 25%, the Activity (HT-22 [7]) was “inactive” and the viability at 24 h, 10 µM [3] was 43%.

In the case of O=C(/C=C/c1ccc(O)c(O)c1)CCCCc1ccc(O)c(O)c1, the Activity (HT-22 [4]) was “Active”, the viability at 24 h, 25 µM [12] was 78% and the Activity (HT-22 [1]) was “Active”. The Activity (HT-22 [6]) was “inactive”.

With COc1cc(/C=C/C(C)=O)ccc1O the Activity (HT-22 [7]) was “inactive”.

O=C(CCCCc1ccc(O)cc1)CCc1ccc(O)cc1 showed a viability at 24 h, 25 µM [12] of 25% and a viability at 24 h, 10 µM [3] of 43%.

In the case of O=C(/C=C/c1ccc(O)cc1)CC(=O)/C=C/c1ccc(O)cc1 [BISDEMETHOXYCURCUMIN], the Activity (HT-22 [8]) was “Toxic”.

For O=C(/C=C/c1ccc(O)cc1)CCCCc1ccc(O)cc1, the viability at 24 h, 25 µM [12] was 25%, the Activity (HT-22 [7]) was “inactive” and the viability at 24 h, 10 µM [3] was 43%.

For CC(=O)/C=C/c1ccc(O)cc1, the Activity (HT-22 [7]) was “inactive” and the viability at 24 h, up to 25 µM [11] was 50%.

For COc1cc(CCCCC(=O)CCc2ccc(O)cc2)ccc1O, the Activity (HT-22 [7]) was “inactive” and the viability at 24 h, 10 µM [3] was 71%.

In the case of COc1cc(CCCCC(O)CCc2ccc(O)cc2)ccc1O (centres undefined), the Activity (HT-22 [7]) was “inactive” and the viability at 24 h, 10 µM [3] was 74%.

In the case of COc1ccc(CCCCC(=O)CCc2ccc(OC)c(OC)c2)cc1OC, the viability at 24 h, 25 µM [12] was 43%, the Activity (HT-22 [13]) was “inactive” and the viability at 24 h, 1 µM [14] was 75%.

In the case of COc1cc(/C=C/C(O)=C/C(=O)/C=C/c2ccc(O)cc2)ccc1O [DEMETHOXYCURCUMIN], the Activity (HT-22 [7]) was “inactive” and the Activity (HT-22 [8]) was “Toxic”.
